Test results from patent publication US11912693B2, “Compounds for modulating S1P1 activity and methods of using the same” (TREVENA, INC., priority 2017, dated 2024).

Assays:
[1] = target: T1, human sphingosine-1-phosphate receptor 1 (S1P1) (Homo sapiens (Human), UniProt P21453); test: β-Arrestin2 recruitment assay (PathHunter), S1P1 CHO-K1 cells; type: cell-based; conditions: for Emax: CHO-K1, efficacy (SPAN) normalized to fingolimod, read-out: hS1P1 B-arrestin2 SPAN
Method in brief: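 Enzyme-fragment complementation read-out: agonist-driven β-arrestin2 binding to ProLink-tagged human S1P1 in stable CHO-K1 cells restores β-galactosidase, measured 1 h at room temperature after a 60 min 37° C. compound incubation. Potency as pEC50, efficacy relative to fingolimod (SPAN).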
Target sequence in this assay (P21453 whole entry, looked up, the tested form may be a part): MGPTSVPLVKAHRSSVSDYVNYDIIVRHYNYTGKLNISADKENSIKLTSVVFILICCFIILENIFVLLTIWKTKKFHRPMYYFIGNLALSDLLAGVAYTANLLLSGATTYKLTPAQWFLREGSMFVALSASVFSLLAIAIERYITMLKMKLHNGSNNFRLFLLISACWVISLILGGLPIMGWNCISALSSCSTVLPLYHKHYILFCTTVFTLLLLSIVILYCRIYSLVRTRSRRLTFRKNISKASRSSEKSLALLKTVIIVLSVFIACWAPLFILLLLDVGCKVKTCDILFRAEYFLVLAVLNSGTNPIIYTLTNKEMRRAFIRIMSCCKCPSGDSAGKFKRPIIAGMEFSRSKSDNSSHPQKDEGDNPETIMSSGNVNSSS
Target sequence in this assay (P32121 whole entry partner, looked up, the tested form may be a part): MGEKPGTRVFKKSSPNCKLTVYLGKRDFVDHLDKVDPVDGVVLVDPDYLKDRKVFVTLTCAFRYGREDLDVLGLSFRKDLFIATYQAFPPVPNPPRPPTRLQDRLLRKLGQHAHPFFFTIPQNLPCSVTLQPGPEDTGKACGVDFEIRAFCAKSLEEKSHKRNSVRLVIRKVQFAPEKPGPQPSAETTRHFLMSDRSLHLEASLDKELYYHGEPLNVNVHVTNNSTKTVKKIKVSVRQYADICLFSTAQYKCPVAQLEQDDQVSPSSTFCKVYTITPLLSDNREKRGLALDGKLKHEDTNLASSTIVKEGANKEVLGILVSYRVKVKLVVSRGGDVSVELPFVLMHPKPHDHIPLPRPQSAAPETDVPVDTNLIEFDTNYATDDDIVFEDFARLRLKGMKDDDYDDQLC

[2] = target: T1, human sphingosine-1-phosphate receptor 1 (S1P1); test: Inhibition of cAMP production (HTRF cAMP HiRange), S1P1 CHO-K1 cells; type: cell-based; conditions: for Emax: CHO-K1, efficacy (SPAN) normalized to fingolimod, read-out: hS1P1 cAMP SPAN
Method in brief: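 CHO-K1 cells stably co-expressing human S1P1 (C-terminal Prolink tag) and EA-β-arrestin2 were grown in AssayComplete Media 6 at 37° C. and 5% CO2, plated, and incubated overnight. Agonist-driven inhibition of intracellular cAMP was read by TR-FRET with the HTRF cAMP HiRange kit on a PheraStar reader. Potency is pEC50, and efficacy (SPAN) is normalized to fingolimod.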
Target sequence in this assay (P21453 whole entry, looked up, the tested form may be a part): as the sequence (P21453 whole entry, looked up, the tested form may be a part) above

[3] = β-arrestin2 recruitment, S1P1 CHO-K1 cells
[4] = inhibition of cAMP production, S1P1 CHO-K1 cells

Structure (SMILES)	Emax [1] [%]	hS1P1 B-arrestin2 pEC50 [1, 3]	Emax [2] [%]	hS1P1 cAMP pEC50 [2, 4]	EC50 ([1]; β-arrestin2 recruitment, S1P1 CHO-K1 cells, read-out: hS1P1 B-arrestin2 pEC50 (converted)) [µM]	EC50 ([2]; inhibition of cAMP production, S1P1 CHO-K1 cells, read-out: hS1P1 cAMP pEC50 (converted)) [µM]
COc1ccc(-c2noc(-c3ccc4c(c3)nnn4C3CCCC3)n2)c2ccccc12 [Compound 91, 1-cyclopentyl-5-[3-(4-methoxynaphthalen-1-yl)-1,2,4-oxadiazol-5-yl]-1H-1,2,3-benzotriazole]	< 75	<5	< 75	<6.5		
c1ccc(Cc2noc(-c3ccc4c(c3)nnn4C3CCCC3)n2)cc1 [Compound 92, 5-(3-benzyl-1,2,4-oxadiazol-5-yl)-1-cyclopentyl-1H-1,2,3-benzotriazole]	< 75		< 75		> 10	> 0.316
Cc1ccncc1-c1noc(-c2ccc3c(c2)nnn3C2CC2)n1 [Compound 94, 1-cyclopropyl-5-[3-(4-methylpyridin-3-yl)-1,2,4-oxadiazol-5-yl]-1H-1,2,3-benzotriazole]	> 75	<5	> 75	<6.5		
Cc1ccccc1-c1noc(-c2ccc3c(c2)nnn3C2CCOCC2)n1 [Compound 95, 5-[3-(2-methylphenyl)-1,2,4-oxadiazol-5-yl]-1-(oxan-4-yl)-1H-1,2,3-benzotriazole]	< 75	<5	< 75	<6.5		
Brc1ccccc1-c1nc(-c2ccc3[nH]nnc3c2)no1 [Compound 97, 3-(1H-benzo[d][1,2,3]triazol-5-yl)-5-(2-bromophenyl)-1,2,4-oxadiazole]	< 75	<5	< 75	<6.5		
Brc1ccccc1-c1nc(-c2ccc3c(c2)nnn3CC2CC2)no1 [Compound 98, 5-(2-bromophenyl)-3-(1-(cyclopropylmethyl)-1H-benzo[d][1,2,3]triazol-5-yl)-1,2,4-oxadiazole]	> 75	>5	> 75	<6.5		
Cc1ccncc1-c1nc(-c2ccc3c(c2)nnn3C(C)C)no1 [Compound 100, 3-(1-isopropyl-1H-benzo[d][1,2,3]triazol-5-yl)-5-(4-methylpyridin-3-yl)-1,2,4-oxadiazole]	< 75	<5	< 75	<6.5		
Cc1ccncc1-c1noc(-c2ccc3c(c2)nnn3C(C)C)n1 [Compound 101, 5-[3-(4-methylpyridin-3-yl)-1,2,4-oxadiazol-5-yl]-1-(propan-2-yl)-1H-1,2,3-benzotriazole]	> 75	>5	> 75	>6.5		
O=C1CCOc2ccc(-c3nc(-c4cccnc4)no3)cc21 [Compound 102, 6-[3-(pyridin-3-yl)-1,2,4-oxadiazol-5-yl]-3,4-dihydro-2H-1-benzopyran-4-one]	< 75	<5	< 75	<6.5		
CCC1(CC)CC(=O)c2cc(-c3nnc(-c4cccnc4)s3)ccc2O1 [Compound 104, 2,2-diethyl-6-(5-(pyridin-3-yl)-1,3,4-thiadiazol-2-yl)chroman-4-one]	> 75	<5	> 75	>6.5		
CCC1(CC)CC(=O)c2cc(-c3nc(-c4ccc(O)nc4)no3)ccc2O1 [Compound 105, 2,2-diethyl-6-[3-(6-hydroxy-3-pyridyl)-1,2,4-oxadiazol-5-yl]chroman-4-one]	< 75	<5	< 75	<6.5		
COc1cccc(-c2cnc(-c3ccc4c(c3)nnn4C(C)C)s2)c1 [Compound 108, 2-(1-isopropyl-1H-benzo[d][1,2,3]triazol-5-yl)-5-(3-methoxyphenyl)thiazole]	< 75	<5	< 75	>6.5		
COc1ccc(-c2cnc(-c3ccc4c(c3)nnn4C(C)C)s2)cc1 [Compound 109, 2-(1-isopropyl-1H-benzo[d][1,2,3]triazol-5-yl)-5-(4-methoxyphenyl)thiazole]	< 75	>5	< 75	<6.5		
CC(C)n1nnc2cc(-c3ncc(-c4cccc(F)c4)s3)ccc21 [Compound 110, 5-(3-fluorophenyl)-2-(1-isopropyl-1H-benzo[d][1,2,3]triazol-5-yl)thiazole]	< 75	<5	< 75	<6.5		
CCC1(CC)CC(=O)c2cc(-c3nc(-c4ccccn4)no3)ccc2O1 [Compound 111, 2,2-diethyl-6-[3-(2-pyridyl)-1,2,4-oxadiazol-5-yl]chroman-4-one]	> 75	<5	> 75	<6.5		
CC(C)n1nnc2cc(-c3nsc(-c4ccccc4O)n3)ccc21 [Compound 112, 2-{3-[1-(propan-2-yl)-1H-1,2,3-benzotriazol-5-yl]-1,2,4-thiadiazol-5-yl}phenol]		>5		>6.5		
c1ccc(-c2noc(-c3ccc4[nH]nnc4c3)n2)cc1 [Compound 113, 5-(3-phenyl-1,2,4-oxadiazol-5-yl)-1H-1,2,3-benzotriazole]		<5		<6.5		
FC(F)(F)c1cc(Br)ccc1-c1noc(-c2ccc3c(c2)nnn3C2CCCC2)n1 [Compound 114, 5-{3-[4-bromo-2-(trifluoromethyl)phenyl]-1,2,4-oxadiazol-5-yl}-1-cyclopentyl-1H-1,2,3-benzotriazole]	< 75	<5	< 75	<6.5		
Brc1ccccc1-c1nc(-c2ccc3c(c2)nnn3C2CCCCC2)no1 [Compound 115, 5-(2-bromophenyl)-3-(1-cyclohexyl-1H-benzo[d][1,2,3]triazol-5-yl)-1,2,4-oxadiazole]	> 75	>5	> 75	>6.5		
COc1cc(-c2nc(-c3ccc4c(c3)nnn4C(C)C)no2)ccn1 [Compound 116, 3-(1-isopropyl-1H-benzo[d][1,2,3]triazol-5-yl)-5-(2-methoxypyridin-4-yl)-1,2,4-oxadiazole]	< 75	<5	< 75	<6.5		
Cc1ccc(-c2noc(-c3ccc4c(c3)nnn4C3CCCCC3)n2)cc1 [Compound 117, 1-cyclohexyl-5-[3-(4-methylphenyl)-1,2,4-oxadiazol-5-yl]-1H-1,2,3-benzotriazole]	< 75	<5	< 75	<6.5		
FC(F)(F)c1cccc(-c2noc(-c3ccc4c(c3)nnn4C3CCCC3)n2)c1 [Compound 118, 1-cyclopentyl-5-{3-[3-(trifluoromethyl)phenyl]-1,2,4-oxadiazol-5-yl}-1H-1,2,3-benzotriazole]		<5		<6.5		
Cc1ccc(-c2nc(-c3ccc4c(c3)nnn4C(C)C)no2)cn1 [Compound 119, 3-(1-isopropyl-1H-benzo[d][1,2,3]triazol-5-yl)-5-(6-methylpyridin-3-yl)-1,2,4-oxadiazole]	< 75	<5	< 75	<6.5		
COc1ccccc1-c1nc(-c2ccc3c(c2)nnn3C2CCCC2)no1 [Compound 120, 3-(1-cyclopentyl-1H-benzo[d][1,2,3]triazol-5-yl)-5-(2-methoxyphenyl)-1,2,4-oxadiazole]	> 75	>5	> 75	>6.5		
CC(C)Oc1ccc(-c2nc(-c3ccc4c(c3)nnn4C3CCCC3)no2)cc1 [Compound 121, 3-(1-cyclopentyl-1H-benzo[d][1,2,3]triazol-5-yl)-5-(4-isopropoxyphenyl)-1,2,4-oxadiazole]	< 75	<5	< 75	<6.5		
